Laboratory results from patent US20250091989A1, “SMALL MOLECULE PROTEIN SYNTHESIS MODULATORS” (Interdict Bio, Inc., priority 2023, published 2025).

Tests used:
CCND1 = assay: In vitro transcription-translation (IVTT) reporter assay, CCND1 test sequence; format: biochemical; details: HeLa S3 lysate, sfGFP/mCherry ratio, 2 hrs at 30° C.
Text: (§1) All reporter constructs have been cloned into the pT7CFE1-CHis plasmid (ThermoFisher #88860) using Gibson assembly procedures (NEB #E2611L). The parental pT7CFE1-CHis plasmid contains an EMCV IRES at the 5′UTR for translation initiation, a multiple-cloning site (MCS) for gene insertion, an optional C-terminal His-epitope tag, and polyA sequence in the 3′UTR to regulate mRNA stability. All reporters are designed to be inserted at the MCS to include a red fluorescent protein (mCherry), P2A self-cleaving peptide which releases the preceding mCherry protein product, and a fusion open reading frame containing a 3×FLAG epitope, a peptide sequence of interest (TEST), and green fluorescent protein (sfGFP).
(§2) Construct Plasmid Preparation: All plasmids are isolated from MACH1 cells (ThermoFisher) grown overnight in ampicillin-containing luria broth, and purified using ZymoPure Express Plasmid Midiprep Kit (Zymo Research). Constructs are sequenced verified and diluted to a working concentration of 110 ng/μL.
(§3) HeLa S3 Lysate Preparation: HeLa S3 cell pellets are acquired from Ipracell/Ipratech (Belgium) and shipped as 4 mL frozen cell pellets on dry ice for storage at −80° C. until use. The procedure for lysate preparation is as follows. Prepare 1× Lysis Buffer, cold and stored on ice:
(§4) Each preparation takes 8 cell pellets (4 ml packed volume each, approximately 1.0×10^9 cells per pellet). Thaw cell pellets from −80° C. on ice for 90 mins. Lay pellets horizontally on top of the ice and rotate every 30 mins to ensure even thawing. Once thawed, add 4 mL of cold lysis buffer to each pellet, and using a serological pipet, gently pipet up and down to break up clumps. Incubate resuspended cells in ice for an additional 30 mins (plunged into ice). During 30 min incubation, rinse and RNase-zap (Ambion) glass dounces (use loose pestle “A”), gently dry and place on ice until needed. Prepare RNase-free Eppendorf tubes for spinning and for batch storage. Add batch labels to 1.5-1.7 mL RNase-free microcentrifuge tubes (labeling scheme below). Each batch will have an extra 1.5-1.7 mL RNase-free microcentrifuge tube for 40 μL of lysate, label the top of this tube (labeling scheme below). After 30 min incubation, transfer all 8 mL of cell pellet to dounce. Cell lysis is complete after douncing 100 times. Aliquot cell lysis into 1.5-1.7 mL temporary-microcentrifuge tubes. Place tubes in centrifuge with “fins” out, and spin at 1,200 xg for 5 mins. After the first spin use a 1 mL pipet to resuspend each tube and repeat spin. This acts as an additional lysis step, is more vigorous and increases lysate yield. During second spin get liquid N2 and a fresh conical tube on ice.
(§5) After spin is complete, transfer supernatant (lysate) from microcentrifuge tubes into the 50 mL conical tube and keep on ice. Repeat steps 10-14 for all other cell pellets until completed. Once all cell lysate has been transferred to the 50 mL conical tube pipet to mix so the solution is homogenous. Transfer 1 mL of lysate into batch-labeled microcentrifuge tubes and flash freeze in liquid nitrogen. Be sure to pipet up and down to mix throughout transfer step. Place all tubes in the […] for long-term storage.
(§6) In vitro transcription-translation assay setup: Each assay includes a master mix containing lysate and shared components, a 96-well plate containing compound titrations for testing, a 96-well DNA plate with reporter constructs to be tested, 96-well skirted PCR plates, and 96-well flat-bottom, black, fluorescent assay plates. […]

KATO-III = assay: Cell viability (CellTiter-Fluor), KATO-III; format: cell-based; details: Homo sapiens, 24-72 hrs
Protocol: (§7) Count and dispense 2,000-10,000 cells per well (100 μL volume) in black 96-well tissue culture microplate and let cells adhere overnight. Add compound dissolved in 100% DMSO to each well as needed and incubate cells in standard culture conditions for 24-72 hrs. Final DMSO concentration in each well should be 0.1-0.5%. At the desired time point, gently aspirate compound containing media and replace with PBS to wash. Repeat wash step for 2 total washes. Remove PBS and add 100 μL CellTiter-Fluor reagent (Promega) reagent to each well. Seal plate and incubate 1 hr at room temperature with orbital shaking. Analyze fluorescence using plate reader to quantify viable cells compared with vehicle (DMSO) control.

KRAS G12D = assay: In vitro transcription-translation (IVTT) reporter assay, KRAS G12D test sequence; format: biochemical; details: HeLa S3 lysate, sfGFP/mCherry ratio, 2 hrs at 30° C.
In short: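 Cell-free HeLa S3 lysate transcription-translation of reporter plasmids encoding mCherry-P2A-3×FLAG-test peptide (CCND1, KRAS G12D, MCL-1 or BCL-2)-sfGFP under EMCV IRES. Half-log compound dilutions (30 μM-0.1 μM, prepared in DMSO); reactions 2 h at 30 °C, quenched with PBS for fluorescence read.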

MS751 = assay: Cell viability (CellTiter-Fluor), MS751; format: cell-based; details: MS751, 24-72 hrs
Protocol: as §7

HPAF-II = assay: Cell viability (CellTiter-Fluor), HPAF-II; format: cell-based; details: Homo sapiens, 24-72 hrs
Protocol: as §7

T47D = assay: Cell viability (CellTiter-Fluor), T47D; format: cell-based; details: Homo sapiens, 24-72 hrs
Protocol: as §7

MYC = assay: In vitro transcription-translation (IVTT) reporter assay, MYC test sequence; format: biochemical; details: HeLa S3 lysate, sfGFP/mCherry ratio, 2 hrs at 30° C.
In short: (§8)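 Coupled transcription-translation in HeLa S3 lysate with reporter plasmids encoding mCherry-P2A-3×FLAG-TEST-sfGFP behind an EMCV IRES. Compounds were half-log titrated (30 μM-0.1 μM in DMSO dilution plate) into master mix, then DNA was added. Reactions ran 2 hrs at 30° C, were PBS-quenched and read for fluorescence.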

LS411N = assay: Cell viability (CellTiter-Fluor), LS411N; format: cell-based; details: Homo sapiens, LS-411N, 24-72 hrs
Protocol: as §7

HEK 293T = assay: Cell viability (CellTiter-Fluor), HEK 293T; format: cell-based; details: Homo sapiens, 24-72 hrs
Protocol: as §7

KLE = assay: Cell viability (CellTiter-Fluor), KLE; format: cell-based; details: Homo sapiens, 24-72 hrs
Protocol: as §7

ALK = assay: In vitro transcription-translation (IVTT) reporter assay, ALK test sequence; format: biochemical; details: HeLa S3 lysate, sfGFP/mCherry ratio, 2 hrs at 30° C.
In short: as §8

MCF7 = assay: Cell viability (CellTiter-Fluor), MCF7; format: cell-based; details: Homo sapiens, MCF7, 24-72 hrs
Protocol: as §7

HCC38 = assay: Cell viability (CellTiter-Fluor), HCC38; format: cell-based; details: Homo sapiens, HCC38, 24-72 hrs
Protocol: as §7

NCI-H1915 = assay: Cell viability (CellTiter-Fluor), NCI-H1915; format: cell-based; details: NCI-H1915, 24-72 hrs
Protocol: as §7

BCL-2 = assay: In vitro transcription-translation (IVTT) reporter assay, BCL-2 test sequence; format: biochemical; details: HeLa S3 lysate, sfGFP/mCherry ratio, 2 hrs at 30° C.
Text: as §1, §2, §3, §4, §5, §6

MCL-1 = assay: In vitro transcription-translation (IVTT) reporter assay, MCL-1 test sequence; format: biochemical; details: HeLa S3 lysate, sfGFP/mCherry ratio, 2 hrs at 30° C.
Text: as §1, §2, §3, §4, §5, §6

HEPG2 = assay: Cell viability (CellTiter-Fluor), HEPG2; format: cell-based; details: Homo sapiens, HEPG2, 24-72 hrs
Protocol: as §7

Row | SMILES | IC50 (CCND1) [µM] | IC50 (KATO-III) [µM] | IC50 (KRAS G12D) [µM] | IC50 (MS751) [µM] | IC50 (HPAF-II) [µM] | IC50 (T47D) [µM] | IC50 (MYC) [µM] | IC50 (LS411N) [µM] | IC50 (HEK 293T) [µM] | IC50 (KLE) [µM] | IC50 (ALK) [µM] | IC50 (MCF7) [µM] | IC50 (HCC38) [µM] | IC50 (NCI-H1915) [µM] | IC50 (BCL-2) [µM] | IC50 (MCL-1) [µM] | IC50 (HEPG2) [µM]
1 | COc1ccc(C[C@H]2NC[C@H](O)[C@H]2OC(=O)Cc2cscn2)cc1 [V187049] | < 10 | < 0.25 | < 10 | < 0.25 | < 0.25 | < 0.25 | < 10 | < 0.25 | < 0.25 | < 0.25 | < 10 | < 0.25 | < 0.25 | < 0.25 | – | – | –
2 | COc1ccc(C[C@H]2NC[C@H](O)[C@H]2OC(C)=O)cc1I [V188005] | > 30 | – | – | – | – | – | > 30 | – | – | – | – | – | – | – | > 30 | > 30 | –
3 | CC(=O)O[C@@H]1[C@@H](O)CN[C@@H]1Cc1ccc(-c2nn[nH]c2Cl)cc1 [V187854] | < 10 | – | – | – | – | – | < 10 | – | – | – | – | – | – | – | < 10 | < 10 | –
4 | CC(=O)O[C@@H]1[C@@H](O)CN[C@@H]1Cc1ccc(-c2nnn(C)c2Cl)cc1 [V187855] | < 10 | – | – | – | – | – | < 10 | – | – | – | – | – | – | – | < 10 | < 10 | –
5 | COc1ccc(C[C@H]2NC[C@H](O)[C@H]2OC(=O)C[C@@H]2CCNC2)cc1 [V187690] | < 10 | 1 to 4 | < 10 | 0.25 to 1 | ≥ 4 | 1 to 4 | < 10 | 0.25 to 1 | 0.25 to 1 | 1 to 4 | < 10 | 0.25 to 1 | 1 to 4 | ≥ 4 | < 10 | < 10 | 0.25 to 1
6 | CC(=O)O[C@@H]1[C@@H](O)CN[C@@H]1Cc1ccc(-c2cn(-c3cccnc3)nn2)cc1 [V187751] | < 10 | – | – | – | – | – | < 10 | – | – | – | – | – | – | – | < 10 | < 10 | –
7 | COc1ccc(CC2NCC(O)C2OC(=O)CC2CC2(F)F)cc1 [V187061, 2R,3S,4S)-4-hydroxy-2-[(4-methoxyphenyl)methyl]pyrrolidin-3-yl 2-(2,2-difluorocyclopropyl)acetate] | – | 1 to 4 | < 10 | < 0.25 | 0.25 to 1 | 0.25 to 1 | < 10 | < 0.25 | < 0.25 | 0.25 to 1 | < 10 | 0.25 to 1 | 0.25 to 1 | 0.25 to 1 | – | – | –
8 | CC(=O)O[C@@H]1[C@@H](O)CN[C@@H]1Cc1ccc(-c2cn(C)nn2)cc1 [V187748] | < 10 | – | – | – | – | – | < 10 | – | – | – | – | – | – | – | < 10 | < 10 | –
9 | CC(=O)O[C@@H]1[C@@H](O)CN[C@@H]1Cc1ccc(-c2cn(-c3ccc(C(F)(F)F)cc3)nn2)cc1 [V187840] | < 10 | – | – | – | – | – | < 10 | – | – | – | – | – | – | – | < 10 | < 10 | –
10 | COc1ccc(C[C@H]2NC[C@H](O)[C@H]2OC(=O)Cc2cnc[nH]2)cc1 [V0109, (2R,3S,4S)-4-hydroxy-2-[(4-methoxyphenyl)methyl]pyrrolidin-3-yl 2-(3H-imidazol-4-yl)acetate] | < 10 | – | < 10 | – | 0.25 to 1 | – | < 10 | 0.25 to 1 | < 0.25 | 0.25 to 1 | < 10 | 0.25 to 1 | – | 0.25 to 1 | – | – | –
11 | COc1ccc(C[C@H]2NC[C@H](O)[C@H]2OC(C)=O)cc1Br [V187263] | 20 to 30 | – | – | – | – | – | > 30 | – | – | – | – | – | – | – | 20 to 30 | 20 to 30 | –
12 | CC(=O)O[C@@H]1[C@@H](O)CN[C@@H]1Cc1ccc(-c2cn(Cc3cn[nH]c3)nn2)cc1 [V187844] | < 10 | – | – | – | – | – | < 10 | – | – | – | – | – | – | – | < 10 | < 10 | –
13 | COc1ccc(C[C@H]2NC[C@H](O)[C@H]2OC(=O)CC(C)C)cc1 [V187035, (2R,3S,4S)-4-hydroxy-2-[(4-methoxyphenyl)methyl]pyrrolidin-3-yl 3-methylbutanoate] | < 10 | – | < 10 | – | – | – | < 10 | – | – | – | < 10 | – | – | – | – | < 10 | –
14 | CC(=O)O[C@@H]1[C@@H](O)CN[C@@H]1Cc1ccc(-c2cn(-c3ccc(Cl)cc3)nn2)cc1 [V187839] | < 10 | – | – | – | – | – | < 10 | – | – | – | – | – | – | – | < 10 | < 10 | –
15 | COc1ccc(C[C@H]2NC[C@H](O)[C@H]2OC(=O)CC2CC(F)(F)C2)cc1 [V187043, (2R,3S,4S)-4-hydroxy-2-[(4-methoxyphenyl)methyl]pyrrolidin-3-yl 2-(3,3-difluorocyclobutyl)acetate; trifluoroacetic acid] | – | 0.25 to 1 | < 10 | < 0.25 | 0.25 to 1 | < 0.25 | < 10 | < 0.25 | < 0.25 | < 0.25 | < 10 | < 0.25 | < 0.25 | 0.25 to 1 | – | – | –
16 | CC(=O)O[C@@H]1[C@@H](O)CN[C@@H]1Cc1ccc(-c2cn(C3CCOCC3)nn2)cc1 [V187838] | < 10 | – | – | – | – | – | < 10 | – | – | – | – | – | – | – | < 10 | < 10 | –
17 | CC(=O)O[C@@H]1[C@@H](O)CN[C@@H]1Cc1ccc(-c2nnn(Cc3ccccc3)c2Cl)cc1 [V187856] | < 10 | – | – | – | – | – | < 10 | – | – | – | – | – | – | – | < 10 | < 10 | –
